Results published in ChEMBL document CHEMBL5550200, “Back-Pocket Optimization of 2-Aminopyrimidine-Based Macrocycles Leads to Potent EPHA2/GAK Kinase Inhibitors” (J Med Chem, 2024).

Experiments:
Ephrin type-A receptor 2 = Ephrin type-A receptor 2 (Homo sapiens, UniProt P29317)
Description: Induction of stabilization of recombinant EPHA2 (D596 to G900 residues) (unknown origin) expressed in Escherichia coli rosetta BL21(D3)-R3-pRARE2 competent cells assessed as change in melting temperature by differential scanning fluorimetry assay

Huh-7 = assay: Cytotoxicity against human Huh-7 cells assessed as reduction in cell viability by alamar blue reagent based analysis; assay type: functional
[1] = molecular target: Ephrin type-A receptor 7 (Homo sapiens) (UniProt Q15375); assay: Induction of stabilization of recombinant EPHA7 (unknown origin) assessed as change in melting temperature by differential scanning fluorimetry assay
Ephrin type-A receptor 4 = Ephrin type-A receptor 4 (Homo sapiens, UniProt P54764); assay: Induction of stabilization of recombinant EPHA4 (unknown origin) assessed as change in melting temperature by differential scanning fluorimetry assay
[2] = molecular target: T1, Ephrin type-B receptor 1 (Homo sapiens) (UniProt P54762); assay: Induction of stabilization of recombinant EPHB1 (unknown origin) assessed as change in melting temperature by differential scanning fluorimetry assay
T1 sequence (whole entry): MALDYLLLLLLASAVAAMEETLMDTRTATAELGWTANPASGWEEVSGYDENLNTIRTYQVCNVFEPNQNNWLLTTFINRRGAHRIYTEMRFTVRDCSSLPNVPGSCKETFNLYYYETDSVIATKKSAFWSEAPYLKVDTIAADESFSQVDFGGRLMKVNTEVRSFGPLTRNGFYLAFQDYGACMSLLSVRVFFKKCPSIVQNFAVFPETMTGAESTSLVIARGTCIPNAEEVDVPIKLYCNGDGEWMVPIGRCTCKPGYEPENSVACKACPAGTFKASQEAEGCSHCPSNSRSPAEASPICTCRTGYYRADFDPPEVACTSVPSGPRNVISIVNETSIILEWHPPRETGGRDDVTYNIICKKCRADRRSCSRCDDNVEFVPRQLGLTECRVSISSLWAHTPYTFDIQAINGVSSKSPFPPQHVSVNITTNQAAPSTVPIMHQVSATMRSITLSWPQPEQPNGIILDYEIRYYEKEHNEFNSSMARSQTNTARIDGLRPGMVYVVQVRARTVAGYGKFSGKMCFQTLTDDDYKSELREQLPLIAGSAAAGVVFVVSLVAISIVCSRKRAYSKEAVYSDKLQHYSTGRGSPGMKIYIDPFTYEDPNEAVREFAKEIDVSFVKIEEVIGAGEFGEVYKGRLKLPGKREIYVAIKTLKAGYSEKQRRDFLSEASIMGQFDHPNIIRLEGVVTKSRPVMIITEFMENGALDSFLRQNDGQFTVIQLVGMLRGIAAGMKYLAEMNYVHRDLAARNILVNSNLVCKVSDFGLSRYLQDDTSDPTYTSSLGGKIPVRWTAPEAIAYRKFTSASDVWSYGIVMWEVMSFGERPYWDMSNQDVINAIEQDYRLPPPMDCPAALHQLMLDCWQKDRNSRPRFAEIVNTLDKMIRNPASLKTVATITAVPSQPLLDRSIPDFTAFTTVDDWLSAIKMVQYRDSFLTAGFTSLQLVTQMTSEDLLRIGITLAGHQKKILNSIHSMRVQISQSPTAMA

[3] = molecular target: Fibroblast growth factor receptor 1 (Homo sapiens, UniProt P11362)
Fibroblast growth factor receptor 1, sequence (P11362 22-822 limits assumed): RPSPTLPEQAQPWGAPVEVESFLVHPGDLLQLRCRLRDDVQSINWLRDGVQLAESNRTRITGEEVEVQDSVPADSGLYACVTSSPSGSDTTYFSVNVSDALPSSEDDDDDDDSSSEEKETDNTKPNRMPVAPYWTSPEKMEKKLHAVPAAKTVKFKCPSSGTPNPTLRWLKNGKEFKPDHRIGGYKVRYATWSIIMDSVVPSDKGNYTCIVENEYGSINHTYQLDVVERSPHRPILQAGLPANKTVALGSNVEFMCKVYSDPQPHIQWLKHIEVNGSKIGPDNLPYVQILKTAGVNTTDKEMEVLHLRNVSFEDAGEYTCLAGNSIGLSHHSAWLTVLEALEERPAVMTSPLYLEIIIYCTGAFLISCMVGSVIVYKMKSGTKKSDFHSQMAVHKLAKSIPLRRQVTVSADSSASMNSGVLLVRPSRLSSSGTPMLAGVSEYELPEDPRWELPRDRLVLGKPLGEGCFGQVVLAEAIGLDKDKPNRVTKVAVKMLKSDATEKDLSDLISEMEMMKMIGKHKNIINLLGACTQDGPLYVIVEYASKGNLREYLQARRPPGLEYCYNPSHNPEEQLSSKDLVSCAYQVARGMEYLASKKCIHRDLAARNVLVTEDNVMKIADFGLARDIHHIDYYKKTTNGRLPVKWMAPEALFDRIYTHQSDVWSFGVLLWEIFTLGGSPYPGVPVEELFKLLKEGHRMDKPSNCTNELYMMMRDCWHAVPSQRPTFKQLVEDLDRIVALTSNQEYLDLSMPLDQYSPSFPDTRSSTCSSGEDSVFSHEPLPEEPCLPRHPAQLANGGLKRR
Description: Induction of stabilization of recombinant FGFR1 (unknown origin) assessed as change in melting temperature by differential scanning fluorimetry assay

Ephrin type-A receptor 7 (Homo sapiens), sequence (Q15375 28-998 limits assumed): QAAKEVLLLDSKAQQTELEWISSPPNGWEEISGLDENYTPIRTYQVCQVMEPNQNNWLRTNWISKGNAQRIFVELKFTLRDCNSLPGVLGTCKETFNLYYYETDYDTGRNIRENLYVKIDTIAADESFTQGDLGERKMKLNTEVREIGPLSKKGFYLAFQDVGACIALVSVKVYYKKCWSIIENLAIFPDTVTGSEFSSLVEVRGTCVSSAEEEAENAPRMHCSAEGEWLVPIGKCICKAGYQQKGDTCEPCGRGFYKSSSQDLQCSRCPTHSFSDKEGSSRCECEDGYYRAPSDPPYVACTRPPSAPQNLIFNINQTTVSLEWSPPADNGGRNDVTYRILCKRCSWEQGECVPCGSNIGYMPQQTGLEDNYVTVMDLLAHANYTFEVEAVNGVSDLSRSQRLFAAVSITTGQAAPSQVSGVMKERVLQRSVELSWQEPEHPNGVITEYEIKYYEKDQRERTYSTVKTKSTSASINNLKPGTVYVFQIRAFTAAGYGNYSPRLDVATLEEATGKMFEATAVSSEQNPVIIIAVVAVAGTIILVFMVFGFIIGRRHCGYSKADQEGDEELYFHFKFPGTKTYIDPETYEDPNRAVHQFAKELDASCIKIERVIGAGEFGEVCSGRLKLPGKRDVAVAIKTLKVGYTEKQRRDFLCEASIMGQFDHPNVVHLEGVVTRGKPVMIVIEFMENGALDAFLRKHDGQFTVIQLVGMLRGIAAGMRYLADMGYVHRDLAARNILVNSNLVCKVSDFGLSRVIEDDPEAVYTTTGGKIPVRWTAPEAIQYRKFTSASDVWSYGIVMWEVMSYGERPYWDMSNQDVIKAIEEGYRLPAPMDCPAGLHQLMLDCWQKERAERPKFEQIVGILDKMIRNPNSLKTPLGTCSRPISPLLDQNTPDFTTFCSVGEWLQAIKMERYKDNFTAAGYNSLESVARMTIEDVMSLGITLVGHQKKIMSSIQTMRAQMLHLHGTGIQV
Ephrin type-A receptor 2, sequence (P29317 whole entry): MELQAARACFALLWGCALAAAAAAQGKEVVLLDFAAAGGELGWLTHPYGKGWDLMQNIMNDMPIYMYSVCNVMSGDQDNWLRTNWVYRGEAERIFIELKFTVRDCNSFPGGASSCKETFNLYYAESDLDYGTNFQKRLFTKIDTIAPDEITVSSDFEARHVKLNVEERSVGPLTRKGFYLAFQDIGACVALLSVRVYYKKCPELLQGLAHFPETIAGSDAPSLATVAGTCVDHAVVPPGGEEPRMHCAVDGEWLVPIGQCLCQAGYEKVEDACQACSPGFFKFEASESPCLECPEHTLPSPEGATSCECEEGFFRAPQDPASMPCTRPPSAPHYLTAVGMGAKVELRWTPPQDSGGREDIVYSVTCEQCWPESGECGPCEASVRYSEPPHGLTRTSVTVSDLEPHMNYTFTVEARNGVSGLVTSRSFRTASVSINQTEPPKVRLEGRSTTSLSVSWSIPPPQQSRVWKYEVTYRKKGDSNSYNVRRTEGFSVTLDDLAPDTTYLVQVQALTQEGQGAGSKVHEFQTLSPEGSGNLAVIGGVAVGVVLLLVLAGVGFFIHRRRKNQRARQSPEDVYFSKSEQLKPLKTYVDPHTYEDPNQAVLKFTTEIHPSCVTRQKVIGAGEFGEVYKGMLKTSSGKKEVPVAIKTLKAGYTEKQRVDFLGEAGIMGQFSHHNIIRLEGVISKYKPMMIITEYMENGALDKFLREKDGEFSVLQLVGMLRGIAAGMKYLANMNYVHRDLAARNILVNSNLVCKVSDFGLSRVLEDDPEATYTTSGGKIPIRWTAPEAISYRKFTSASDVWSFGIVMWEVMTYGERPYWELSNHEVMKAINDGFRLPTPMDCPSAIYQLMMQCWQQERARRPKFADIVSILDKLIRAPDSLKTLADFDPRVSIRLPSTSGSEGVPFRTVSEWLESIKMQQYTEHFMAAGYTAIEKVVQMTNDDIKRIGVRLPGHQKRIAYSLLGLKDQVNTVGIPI
Ephrin type-A receptor 4, sequence (P54764 whole entry): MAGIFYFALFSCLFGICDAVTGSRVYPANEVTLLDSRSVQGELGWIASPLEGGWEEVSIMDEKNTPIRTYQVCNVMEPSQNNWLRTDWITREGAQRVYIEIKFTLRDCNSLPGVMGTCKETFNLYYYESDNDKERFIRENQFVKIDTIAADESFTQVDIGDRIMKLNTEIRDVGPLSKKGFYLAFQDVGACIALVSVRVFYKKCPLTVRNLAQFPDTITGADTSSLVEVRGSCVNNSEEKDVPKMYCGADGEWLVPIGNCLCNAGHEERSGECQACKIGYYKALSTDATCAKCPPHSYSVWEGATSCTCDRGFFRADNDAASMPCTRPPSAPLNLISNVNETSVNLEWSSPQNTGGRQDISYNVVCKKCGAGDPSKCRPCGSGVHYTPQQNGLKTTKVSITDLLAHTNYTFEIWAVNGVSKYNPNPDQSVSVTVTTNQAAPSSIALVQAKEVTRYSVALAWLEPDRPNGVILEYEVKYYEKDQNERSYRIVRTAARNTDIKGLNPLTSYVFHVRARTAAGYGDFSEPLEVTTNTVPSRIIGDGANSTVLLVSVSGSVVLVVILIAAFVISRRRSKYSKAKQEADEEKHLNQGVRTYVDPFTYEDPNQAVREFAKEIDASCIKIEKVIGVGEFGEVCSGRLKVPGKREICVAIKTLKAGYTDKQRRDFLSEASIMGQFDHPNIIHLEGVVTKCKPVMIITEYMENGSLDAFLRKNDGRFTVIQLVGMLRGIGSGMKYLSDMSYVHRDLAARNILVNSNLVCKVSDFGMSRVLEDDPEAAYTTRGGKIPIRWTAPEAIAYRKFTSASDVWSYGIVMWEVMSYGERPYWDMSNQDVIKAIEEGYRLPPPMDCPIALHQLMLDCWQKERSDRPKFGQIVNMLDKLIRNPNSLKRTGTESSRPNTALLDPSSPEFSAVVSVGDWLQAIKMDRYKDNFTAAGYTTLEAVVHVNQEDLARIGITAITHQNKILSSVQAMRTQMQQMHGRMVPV

SMILES	deltaTm (Ephrin type-A receptor 2)	CC50 (Huh-7)	deltaTm [1]	deltaTm (Ephrin type-A receptor 4)	deltaTm [2]	deltaTm [3]
COc1cc(-c2cnc3nc2NCCCNS(=O)(=O)c2cc(ccc2O)N3)ccc1F	7.9 K	> 10 µM	0.3 K	3.3 K	3.5 K	1.9 K
O=S1(=O)NCCCNc2nc(ncc2-c2ccc(Cl)c(Cl)c2)Nc2cccc1c2	6.2 K	> 10 µM	2.4 K	2.9 K	2.2 K	2.8 K
COc1c(F)ccc(-c2cnc3nc2NCCCNS(=O)(=O)c2cccc(c2)N3)c1F	8.8 K	2.9 µM	-2.5 K	4.9 K	5.6 K	5.2 K
COc1cc(-c2cnc3nc2NCCCNS(=O)(=O)c2cccc(c2)N3)c(F)cc1F	6.9 K	> 10 µM	0.4 K	2.8 K	3.3 K	2.7 K
